The target in this test is T1, liver carnitine palmitoyl transferase 1 (L-CPT1) (Homo sapiens, UniProt P50416).
T1 construct: made in house; host or cells: Pichia pastoris strain X-33 (crude cell-free extract)
T1 sequence (P50416 1-773): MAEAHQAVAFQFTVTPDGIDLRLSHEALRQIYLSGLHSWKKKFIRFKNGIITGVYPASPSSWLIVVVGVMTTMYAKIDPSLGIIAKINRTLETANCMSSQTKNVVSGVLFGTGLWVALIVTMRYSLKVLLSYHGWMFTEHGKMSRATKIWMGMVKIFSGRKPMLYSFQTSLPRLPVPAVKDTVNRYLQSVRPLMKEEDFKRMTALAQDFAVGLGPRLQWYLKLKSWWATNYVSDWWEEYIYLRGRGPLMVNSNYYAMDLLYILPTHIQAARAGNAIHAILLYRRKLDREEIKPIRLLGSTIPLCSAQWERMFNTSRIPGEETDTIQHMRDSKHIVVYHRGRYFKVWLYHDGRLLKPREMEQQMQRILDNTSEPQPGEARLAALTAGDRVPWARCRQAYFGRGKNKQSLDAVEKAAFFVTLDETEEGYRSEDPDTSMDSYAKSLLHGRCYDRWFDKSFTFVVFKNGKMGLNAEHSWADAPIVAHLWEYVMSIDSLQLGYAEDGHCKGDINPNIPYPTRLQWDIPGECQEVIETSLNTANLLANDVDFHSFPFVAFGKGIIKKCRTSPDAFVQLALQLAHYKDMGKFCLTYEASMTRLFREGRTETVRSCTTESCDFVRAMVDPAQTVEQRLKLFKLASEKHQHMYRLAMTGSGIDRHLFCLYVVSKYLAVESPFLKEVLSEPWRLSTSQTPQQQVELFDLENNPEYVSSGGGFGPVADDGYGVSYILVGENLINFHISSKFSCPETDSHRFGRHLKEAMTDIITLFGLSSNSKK
The experiment in a line: L-CPT1 inhibition, spectrophotometric CPT activity assay with DTNB (Ellman's reagent). The settings on record: human liver CPT1 expressed in P. pastoris, cell extracts; carnitine 500 μM, palmitoyl-CoA 80 μM, DTNB 300 μM, pH 7.4. The format is biochemical. As to the method:
The following tests were carried out in order to determine the activity of the compounds of the present invention. Background information on the performed assays can be found in: Jackson et al., 1999, Biochem. J. 341, 483-489 and Jackson et al., 2000, J. Biol. Chem. 275, 19560-19566.
Human liver and muscle CPT1 cDNAs and rat CPT2 cDNA were subcloned in pGAPZB or pGAPZA, respectively. These plasmids were used to transform P. pastoris strain X-33 via electroporation after the preparation of electrocompetent cells. High copy number clones were selected where necessary using 0.5 or 1 mg/ml Zeocin. Cultures for activity measurements were induced for 16 h in YPD medium (1% yeast extract, 2% peptone, 2% glucose). Crude cell extracts were prepared by disrupting the cells with glass beads or French Press, depending on fermenter sizes. After centrifugation, the cell-free extracts were resuspended in cell breaking buffer (50 mM Tris, pH7.4, 100 mM KCl, 1 mM EDTA) in the presence of a protease inhibitor cocktail, before aliquoting and freezing at −20° C.
CPT activity was measured using a spectrophotometric assay using 5,5′-dithio-bis-(2-nitrobenzoic acid) (DTNB) also called Ellman's reagent. The HS-CoA released on the formation of acylcarnitine from carnitine (500 μM) and palmitoyl-CoA (80 μM) reduced DTNB (300 μM) forming 5-mercapto-(2-nitrobenzoic acid) which absorbed at 410 nm with a molar extinction coefficient of 13600 M^−1cm^−1. The assay buffer contained 120 mM KCl, 25 mM Tris, pH 7.4, 1 mM EDTA. This assay was used for the identification of selective inhibitors of the liver CPT1 isoform versus the muscle CPT1 and CPT2 isoforms.
(In general: Ellman's reagent forms a yellow product with free thiols.)
In general, IC50 refers to the concentration that inhibits the measured activity by half. Molecule `Cc1ccc(-c2nc([C@H]3CCCCN3C(=O)COc3ccccc3)cs2)cn1` [Example 30, 1-{(R)-2-[2-(6-Methyl-pyridin-3-yl)-thiazol-4-yl]-piperidin-1-yl}-2-phenoxy-ethanone] gave an IC50 of 88.7 nM.

`O=C(COc1ccccc1)N1CCCC[C@@H]1c1csc(-c2cccnc2)n1` [Example 31, 2-Phenoxy-1-[(R)-2-(2-pyridin-3-yl-thiazol-4-yl)-piperidin-1-yl]-ethanone]: the IC50 was determined as 56.2 nM. The result for `O=C(COc1ccccc1)N1CCCC[C@@H]1c1csc(-c2ccncc2)n1` [Example 32, 2-Phenoxy-1-[(R)-2-(2-pyridin-4-yl-thiazol-4-yl)-piperidin-1-yl]-ethanone] reads 150 nM; that for `COc1ccc(-c2nc([C@H]3CCCCN3C(=O)COc3ccccc3)cs2)cn1` [Example 33, 1-{(R)-2-[2-(6-Methoxy-pyridin-3-yl)-thiazol-4-yl]-piperidin-1-yl}-2-phenoxy-ethanone], 79.4 nM. The figure for `O=C(COc1ccccc1)N1CCCC[C@@H]1c1csc(-c2ccccn2)n1` [Example 34, 2-Phenoxy-1-[(R)-2-(2-pyridin-2-yl-thiazol-4-yl)-piperidin-1-yl]-ethanone] is 176 nM.

Turning to `O=C(COc1ccccc1)N1CCCC[C@@H]1c1csc(-c2ccc(F)cc2)n1` [Example 35, 1-{(R)-2-[2-(4-Fluoro-phenyl)-thiazol-4-yl]-piperidin-1-yl}-2-phenoxy-ethanone], half-maximal inhibition (IC50) was put at 155 nM. The IC50 values of the last two molecules are within 1.5-fold of each other. As for `COC(=O)c1ccc(-c2nc([C@H]3CCCCN3C(=O)COc3ccccc3)cs2)cc1` [Example 36, 4-{4-[(R)-1-(2-Phenoxy-acetyl)-piperidin-2-yl]-thiazol-2-yl}-benzoic acid methyl ester], the IC50 was 365 nM. For `O=C(COc1ccccc1)N1CCCC[C@@H]1c1csc(Cc2ccc(Cl)cc2)n1` [Example 37, 1-{(R)-2-[2-(4-Chloro-benzyl)-thiazol-4-yl]-piperidin-1-yl}-2-phenoxy-ethanone], the IC50 stood at 725 nM. With `O=C(COc1ccccc1)N1CCCC[C@@H]1c1csc(C2COc3ccccc3O2)n1` (stereo partly drawn) [Example 38, 1-{(R)-2-[2-(2,3-Dihydro-benzo[1,4]dioxin-2-yl)-thiazol-4-yl]-piperidin-1-yl}-2-phenoxy-ethanone], the IC50 amounted to 398 nM. The result for `O=C(O)c1cccc(-c2nc([C@H]3CCCCN3C(=O)COc3ccccc3)cs2)c1` [Example 40, 3-{4-[(R)-1-(2-Phenoxy-acetyl)-piperidin-2-yl]-thiazol-2-yl}-benzoic acid] reads 80.3 nM; that for `O=C(O)c1ccc(-c2nc([C@H]3CCCCN3C(=O)COc3ccccc3)cs2)cc1` [Example 41, 4-{4-[(R)-1-(2-Phenoxy-acetyl)-piperidin-2-yl]-thiazol-2-yl}-benzoic acid], 296 nM. The figure for `O=C(O)c1cccc(-c2csc([C@H]3CCCCN3C(=O)COc3ccccc3)n2)n1` [Example 42, 6-{2-[(R)-1-(2-Phenoxy-acetyl)-piperidin-2-yl]-thiazol-4-yl}-pyridine-2-carboxylic acid] is 37.7 nM; for `O=C(O)c1cccc(-c2csc([C@H]3CCCCN3C(=O)COc3ccccc3)n2)c1` [Example 44, Sodium; 3-{2-[(R)-1-(2-phenoxy-acetyl)-piperidin-2-yl]-thiazol-4-yl}-benzoate] it is 24.1 nM.

`COC(=O)c1cccc(-c2nc([C@H]3CCCCN3C(=O)COc3ccccc3)sc2C)c1` [Example 45, 3-{5-Methyl-2-[(R)-1-(2-phenoxy-acetyl)-piperidin-2-yl]-thiazol-4-yl}-benzoic acid methyl ester] registered an IC50 of 300 nM. The result for `Cc1sc([C@H]2CCCCN2C(=O)COc2ccccc2)nc1-c1cccc(C(=O)O)c1` [Example 46, 3-{5-Methyl-2-[(R)-1-(2-phenoxy-acetyl)-piperidin-2-yl]-thiazol-4-yl}-benzoic acid] reads 100 nM.
